# Reference: patent US11899025B2, “Pharmaceutical composition for preventing or treating neurodegenerative diseases comprising COX2 acetylating agent as active ingredient” (KYUNGPOOK NATIONAL UNIVERSITY INDUSTRY-ACADEMIC COOPERATION …, priority 2018, dated 2024)
# Legend:
# COX2 = target: T1, COX2 (Mus musculus, UniProt Q05769); test: COX2 acetylation analysis with [14C]N-acetyl sphingosine; format: cell-based; conditions: 2 uCi [14C]N-acetyl sphingosine; FIG. 8c
# T1 construct: endogenous in cells; host or cells: primary neurons from mouse cerebrum
# T1 sequence (Q05769 18-604): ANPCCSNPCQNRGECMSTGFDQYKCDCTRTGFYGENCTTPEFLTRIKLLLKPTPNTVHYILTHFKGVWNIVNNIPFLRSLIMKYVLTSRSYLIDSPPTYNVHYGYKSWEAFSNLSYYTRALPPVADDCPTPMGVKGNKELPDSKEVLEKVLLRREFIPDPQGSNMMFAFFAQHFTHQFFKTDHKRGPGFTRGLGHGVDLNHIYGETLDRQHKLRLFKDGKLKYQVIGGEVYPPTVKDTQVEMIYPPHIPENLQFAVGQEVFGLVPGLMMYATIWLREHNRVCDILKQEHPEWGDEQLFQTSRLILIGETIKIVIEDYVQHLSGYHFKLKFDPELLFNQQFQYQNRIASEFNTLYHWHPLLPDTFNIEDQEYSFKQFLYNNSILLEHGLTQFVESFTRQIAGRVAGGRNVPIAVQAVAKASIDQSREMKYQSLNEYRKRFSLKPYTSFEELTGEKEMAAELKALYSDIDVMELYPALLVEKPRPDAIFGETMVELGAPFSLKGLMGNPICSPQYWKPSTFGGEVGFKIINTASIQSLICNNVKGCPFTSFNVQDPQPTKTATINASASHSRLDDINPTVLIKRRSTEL
# Method: In order to measure the neuroinflammatory resolution factor, after culturing neurons from mouse cerebrum, CM was prepared by treatment with 10 nM N-acetyl sphingosine 1 phosphate (Toronto Research chemicals, C262710) and N-acetyl sphingosine (Sigma, 01912). For COX2 acetylation analysis, neurons were cultured from mouse cerebrum and then treated with 2 uCi [^14C]N-acetyl sphingosine (ARC, ARC1024). In addition, for in vivo experiments, 7-month-old APP/PS1 mice were injected with 5 mg/kg N-acetyl sphingosine (Sigma, 01912), 1 mg/kg FTY720 and 3 uM S1P daily for 4 weeks via intraperitoneal injection. 1 month-old NPC mice were injected with 5 mg/kg N-acetyl sphingosine (Sigma, 01912) and 2-month-old FUS mice with 30 mg/kg N-acetyl sphingosine (Sigma, 01912) daily for 4 weeks via subcutaneous injection.
# Next, it was confirmed using N-acetyl sphingosine with C^14 attached to confirm whether the secretion of the neuroinflammatory resolution factor by the compounds was due to the increase in COX2 acetylation,
# In addition, it was confirmed that serine 565 (S565) against the COX2 peptide 560-[…]-575 was acetylated in the presence of N-acetyl sphingosine (FIG. 8d).
# NP-C mice = test: Niemann-Pick (NP-C) animal model: immunofluorescence, Rota-rod, Beam test; format: in vivo, mouse; conditions: 1 month-old NPC mice, 5 mg/kg daily for 4 weeks, subcutaneous
# Excerpt: (§1) It has been approved for mouse experiments by the Kyungpook National University Institutional Animal Care and Use Committee (IACUC). A transgenic mouse line overexpressing APPswe (hAPP695swe) or PS1 (presenilin-1M146V) based on C57BL/6 mice (Charles River, UK) was used. [Hereinafter, APP mouse: mouse overexpressing APPswe, PS1 mouse: mouse overexpressing presenilin-1M146V; GlaxoSmithKline]. As an Alzheimer's (AD) animal model, SphK1 tg (SphK1 gene overexpressing mouse) was crossed with APP mice and APP/PS1 mice to prepare APP/PS1/SphK1 tg mice. Niemanpick (NP-C) animal model, Balb/C (Orient, Wild type), NPC mutant mouse lacking NPC1 gene (Provided by Riken, Japan, NP-C mice; less weight than normal mice of the same age, and severe motor function loss from 4 to 6 weeks of age, limb tremors and seizures appear, and lifespan is approximately 9 to 10 weeks. Is) was used. As an animal model for amyotrophic lateral sclerosis (ALS), a transgenic mouse (FUS) line overexpressing RUS R521C based on C57BL/6 mice (Charles River, UK) was used.
# (§2) After fixing the cerebral and hippocampus of the mouse, anti-20G10 (mouse, 1:1000) against amyloid-β (Aβ) 42 and anti-G30 (rabbit, 1:1000) against Aβ 40, anti-MAP2 (chicken, 1:2000), anti-Synaptophysin (mouse, 1:100), anti-Synapsin1 (rabbit, 1:500), anti-PSD95 (mouse, 1:100), anti-Iba-1 (rabbit, 1:500), Anti-GFAP (rabbit, 1:500) was cultured together. The site was analyzed using a laser scanning confocal microscope or Olympus BX51 microscope equipped with Fluoview SV1000 imaging software (Olympus FV1000, Japan). Metamorph software (Molecular Devices) was used to quantify the percentage of the area of the stained area relative to the area of the total tissue.
# (§3) To check the motor ability of each experimental group mice, a Rota-rod, Beam test, Tail suspension test, and Hanging wired test were performed. […] The endurance time of the experimental animal was measured in seconds, and the average value was recorded. […] In the Beam test, the time taken to move to the end point after placing the mouse at the start point of a 12 mm wide bar was measured. […]
# FUS R521C mice = test: amyotrophic lateral sclerosis animal model (FUS R521C mice): immunofluorescence, Tail suspension, Rota-rod, Hanging wired test; format: in vivo, mouse; conditions: 2-month-old FUS mice, 30 mg/kg daily for 4 weeks, subcutaneous
# Excerpt: as §1, §2, §3
smiles,measurement,setting,value
CCCCCCCCCCCCC/C=C/[C@@H](O)[C@H](CO)NC(C)=O [N-acetyl sphingosine],"COX2 acetylation compared with the sample of SphK1, acetyl-CoA and sphingosine",COX2,more acetylation
same,microglia (Iba1) in brain cortex vs NP-C mice,NP-C mice; FIG. 10a,remarkable decrease
same,astrocytes (GFAP) in brain cortex vs NP-C mice,NP-C mice; FIG. 10b,remarkable decrease
same,"exercise capacity (Rota-rod, Beam test) vs NP-C mice",NP-C mice; FIGS. 10c and d,improved
same,activity of microglia (Iba1) vs FUS R521C mice,FUS R521C mice; FIG. 11a,decreased
same,activity of astrocytes (GFAP) vs FUS R521C mice,FUS R521C mice; FIG. 11b,decreased
same,"exercise capacity (Tail suspension, Rota-rod, Hanging wired test) vs FUS R521C mice",FUS R521C mice; FIGS. 11c to e,improved
